Measurements taken from PMC5216351, “Obtaining control of cell surface functionalizations via Pre-targeting and Supramolecular host guest interactions” (Scientific Reports, 2017).
Positions of bridges follow the written chain, without caps; N, C: chain ends. Non-standard residues stand in square brackets, D forms with d. Residues, ends and D or L forms follow the SMILES beside them. *: point of attachment. Adamantane1carbonyl = O=C(C12CC3CC(CC(C3)C1)C2)*; 2Nal = N[C@@H](Cc1ccc2ccccc2c1)C(=O)O; Cit = NC(=O)NCCC[C@H](N)C(=O)O

What was measured:
[1] = target: T1, chemokine receptor 4 (CXCR4) (Homo sapiens, UniProt P61073); assay: Flow cytometry competition binding on viable CXCR4 expressing cells (receptor affinity); conditions: competition with Ac-TZ14011-MSAP (250 nM), 0.5 – 15,000 nM in PBS, MDAMB231 X4 cells, 1 h on ice, n = 2, One site-Fit Ki
T1 construct: expressed in transfected cells; host or cells: MDAMB231 X4 (human MDA-MB-231 breast cancer cells, provided by Dr. Gary Luker)
Protocol: Human MDAMB231 cells, transfected with human CXCR4 conjugated GFP (MDAMB231 X4), were kindly provided by Dr. Gary Luker (Center for Molecular Imaging, University of Michigan, USA).5 Native MDAMB231 cells with basal CXCR4 expression were used as control.6 Cells we re maintained in Dulbecco’s minimum essential medium (DMEM) enriched with 10% fetal bovine serum and 5 mL Penicillin/Streptomycin (1,000 units/mL Penicillin; 1,000 μg/mL Streptomycin) (all Life Technologies Inc.). Cell lines were cultured and maintained under standard conditions […]
One day prior the experiment, cells were trypsinized, seeded onto culture dishes with glass insert (ø35mm glass bottom dishes No. 15, poly-d-lysine coated, γ-Irradiated, MatTek corporation) and incubated overnight in 2 mL DMEM. […] The intrinsic GFP signal in the MDAMB231 X4 cells was measured with excitation at 488 nm and emission was collected at 500-525 nm.
Cy3 fluorescence was measured with excitation at 514 nm, emission was collected at 550-5 70 nm. Cy5 fluorescence was measured with excitation at 633 nm, emission was collected at 650-700 nm. Any Hoechst 33342 fluorescence was measured using 405 nm excitation and emission was collected at 420-470 nm. Images and signal quantifications were obtained using Leica Application Suite software, by applying the polygon function and calculating the average gray value/m2 for each cell. […]

MDAMB231 X4 cells = assay: Host-guest dependent cell functionalization, confocal microscopy and flow cytometry; assay type: cell-based, human; conditions: peptide 10 μM, polymer 10 μM β-CD / 1 μM polymer, 1 h each at 0 °C; Fig. 3a
Protocol: The receptor-mediated functionalization of cells was examined by confocal microscopy and flow cytometry (see also ‘Ac-TZ14011-Ad induced cell functionalization analyzed by flow cytometry’). For Confocal microscopy MDAMB231 × 4 cells (80,000 per well) were incubated with either Ac-TZ14011 (10 μM), Ac-TZ14011-Ad (10 μM), or none, for 1 h at 0 °C in 1 mL DMEM. […] Thereafter, the cells were washed twice with PBS and confocal images were acquired. All experiments were performed in 6-fold and for each condition per experiment at least 10 cells were included in the study. The Cy5 signal present on the cell in each sample was quantified to analyze differences between the amount of binding of the polymers to the cells when either, no peptide, Ac-TZ14011, or Ac-TZ14011-Ad was present. For normalization all results were divided by the average fluorescence value obtained when just the polymer was added. The significance of the obtained differences was determined by student T-test (two tailed, unpaired).
Besides examining the receptor-mediated functionalization of cells by confocal microscopy (see ‘Ac-TZ14011-Ad induced cell functionalization analyzed by confocal microscopy’) the functionalization was also examined by flow cytometry to quantify the rate of functionalization. […] For data normalization, all results were divided by the average fluorescence value obtained when only the polymer was added. […]

T1 sequence (P61073 whole entry): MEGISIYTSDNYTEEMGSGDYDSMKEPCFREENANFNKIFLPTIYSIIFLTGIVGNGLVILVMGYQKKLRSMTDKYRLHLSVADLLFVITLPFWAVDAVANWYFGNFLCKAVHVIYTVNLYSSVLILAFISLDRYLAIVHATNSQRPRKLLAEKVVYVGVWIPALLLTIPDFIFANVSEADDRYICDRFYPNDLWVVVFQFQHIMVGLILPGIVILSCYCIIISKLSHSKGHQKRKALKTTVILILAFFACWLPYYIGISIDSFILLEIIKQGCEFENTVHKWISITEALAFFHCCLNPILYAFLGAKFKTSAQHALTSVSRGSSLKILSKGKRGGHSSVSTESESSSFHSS

CC(=O)N[C@@H](CCCNC(=N)N)C(=O)N[C@@H](CCCNC(=N)N)C(=O)N[C@@H](Cc1ccc2ccccc2c1)C(=O)N[C@H]1CSSC[C@@H](C(=O)N[C@@H](CCCNC(=N)N)C(N)=O)NC(=O)[C@H](CCCNC(N)=O)NC(=O)[C@H](CCCNC(=N)N)NC(=O)[C@H](Cc2ccc(O)cc2)NC(=O)[C@@H]2CCCN2C(=O)[C@@H](CCCCNC(=O)C23CC4CC(CC(C4)C2)C3)NC(=O)[C@H](CCCNC(=N)N)NC(=O)[C@H](CCCNC(N)=O)NC(=O)[C@H](Cc2ccc(O)cc2)NC1=O [Ac-TZ14011-Ad] (Ac-RR[2Nal]CY[Cit]R[dK](Adamantane1carbonyl)PYR[Cit]CR-NH2; disulfide 4-13)
Kd [1]: 56 nM
effect of pre-targeting peptide on Cy5_0.5CD10PIBMA39 binding (MDAMB231 X4 cells): further enhances this effect
